{"source": "paper PMC6006164", "about": "“Natural cyclopeptide RA-V inhibits the NF-κB signaling pathway by targeting TAK1” (Cell Death & Disease, 2018)", "key": {"[1]": {"system": "LPS-induced endotoxin shock", "assay": "Mouse endotoxin shock model", "assay_type": "in vivo, mice", "experimental": "The above results prompted us to explore the in vivo effect of RA-V on the NF-κB signaling pathway. We extended our study to the mouse endotoxin shock model, in which mice were intraperitoneally injected with LPS (10 mg/kg or 20 mg/kg) and evaluated for changes by examining physiological parameters induced by the inflammatory response.\nFirst, the mice were intravenously injected with RA-V micelles (0.25 mg/kg body weight) or control micelles at three time points: 52, 28, and 4 h before they were intraperitoneally injected with phosphate-buffered saline (PBS) or LPS (10 mg/kg). One hour after LPS injection, we examined proinflammatory cytokines (IL-6 and TNF-α) production at the transcriptional and translational levels. […] As expected, after receiving the LPS injection, all of the control mice died within 36 h, whereas 60% of the RA-V-treated mice survived (Fig. 2d). To further confirm the in vivo effect of RA-V on the NF-κB pathway, we performed the endotoxin shock model on NF-κB-luciferase transgenic mice.\nFig. 2 RA-V prevents endotoxic shock and inhibits NF-κB activation in vivo. a–c RA-V prevents endotoxic shock in vivo. Mice (n = 6 per group) were intravenously injected with RA-V micelles (0.25 mg/kg body weight) or control micelles 52, 28, and 4 h before an intraperitoneal injection of LPS (10 mg/kg). One hour later, the relative levels of IL-6 and TNF-α mRNAs in the liver were assessed by quantitative RT-PCR (a), the serum IL-6 and TNF-α levels were quantified by ELISA (b), and the expression of p65 and IκBα phosphorylation in the liver were measured by immunoblot analysis c. d RA-V improved animal survival. Mice (n = 20 per group) were intravenously injected with RA-V micelles (0.25 mg/kg body weight) or control micelles 52, 28, and 4 h before intraperitoneal injection of LPS (20 mg/kg). Animal survival was recorded in 2–3 hours intervals. e RA-V inhibits NF-κB activation in vivo. The NF-κB-luc transgenic mice (n = 4 per group) were intravenously injected with RA-V micelles (0.25 mg/kg body weight) or control micelles 52, 28, and 4 h before intraperitoneal injection with LPS (10 mg/kg). NF-κB-luc transgenic mice were photographed at different time points and representative images are shown. The bioluminescent signals from all of the mice were detected and quantified. The data are presented as the means ± S.D. *, p < 0.05; **, p < 0.01"}, "TAK1–TRAF6 interaction": {"molecular_target": "T1, TAK1–TRAF6 interaction (Homo sapiens, UniProt O43318)", "T1 construct": "expressed in transfected cells; host or cells: HEK293T", "T1 sequence (O43318 1-579 isoform O43318-2)": "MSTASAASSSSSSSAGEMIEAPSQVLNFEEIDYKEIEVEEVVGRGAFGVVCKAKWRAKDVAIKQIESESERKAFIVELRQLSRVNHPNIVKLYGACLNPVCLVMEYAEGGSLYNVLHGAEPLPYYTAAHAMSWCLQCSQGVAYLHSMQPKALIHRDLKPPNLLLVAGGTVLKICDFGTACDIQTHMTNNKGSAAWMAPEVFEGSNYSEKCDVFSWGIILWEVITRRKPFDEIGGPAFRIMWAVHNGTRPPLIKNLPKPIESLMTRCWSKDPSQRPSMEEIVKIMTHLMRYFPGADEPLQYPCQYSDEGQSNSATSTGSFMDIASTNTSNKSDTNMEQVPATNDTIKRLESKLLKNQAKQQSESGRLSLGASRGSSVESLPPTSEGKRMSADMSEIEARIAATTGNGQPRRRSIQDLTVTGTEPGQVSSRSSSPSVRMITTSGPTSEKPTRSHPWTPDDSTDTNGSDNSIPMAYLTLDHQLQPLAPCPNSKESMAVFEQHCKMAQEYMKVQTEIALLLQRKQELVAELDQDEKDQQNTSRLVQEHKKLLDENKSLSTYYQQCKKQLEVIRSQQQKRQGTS", "assay": "Co-immunoprecipitation of TAK1 and TRAF6", "assay_type": "cell-based", "details": "HEK293T, Flag-TAK1 and HA-TRAF6; RA-V 800 nM 6 h", "experimental": "Fig. 4 RA-V blocks the interaction between TAK1 and TAB2. a RA-V blocked the exogenous TAK1–TAB2 interaction. HEK293T cells were transfected with Flag-TAK1 and HA-TAB2 for 24 h and then incubated with various concentrations of RA-V for 6 h. […] HEK293T cells were transfected with Flag-TAK1 and HA-TRAF6 or HA-TAB1 for 24 h and then incubated with RA-V (800 nM) for 6 h. The cell lysates were immunoprecipitated with HA antibody, and immunoblots were performed with the indicated antibodies. d RA-V blocked the endogenous TAK1–TAB2 interaction. HEK293T (left) or RAW264.7 (right) cells were incubated with 800 nM RA-V for 6 h and stimulated with 10 ng/mL TNF-α for 2 h or 1 μg/mL LPS for 3 h, respectively. The cell lysates were immunoprecipitated with TAK1 antibody or control IgG and then immunoblotted with the indicated antibodies. Each experiment was repeated at least three times\nThe cell lysates were prepared using radioimmunoprecipitation (RIPA) buffer containing 50 mM Tris-HCl pH 7.4, 150 mM NaCl, 1 mM ethylenediaminetetraacetic acid, 1% Triton X-100, 0.5% deoxycholate, and 0.1% sodium dodecyl sulfate, to which protease inhibitors (Roche) were added. The lysates were incubated with the indicated antibodies before adding 20 μL of Protein A/G agarose for 2 h. After four washes with the same buffer, the immunoprecipitates were boiled in 2 × SDS loading buffer."}, "[2]": {"details": "RA-V micelles 0.25 mg/kg i.v. 52, 28, 4 h before LPS 10 mg/kg i.p., 1 h after LPS, n = 6"}}}
{"substance": "RA-V", "values": [{"measurement": "IL-6 and TNF-α in the serum (ELISA)", "setting": "[1]; [2]", "value": "reduced expression"}, {"measurement": "expression of IL-6 and TNF-α mRNAs in liver tissue", "setting": "[1]; [2]", "value": "significantly decreased"}, {"measurement": "phosphorylation of IκBα and p65 in liver tissue", "setting": "[1]; RA-V micelles 0.25 mg/kg i.v. 52, 28, 4 h before LPS 10 mg/kg i.p., immunoblot", "value": "clearly inhibited"}, {"measurement": "survival of mice after lethal dose of LPS", "setting": "[1]; RA-V micelles 0.25 mg/kg i.v. 52, 28, 4 h before LPS 20 mg/kg i.p., n = 20, all control mice died within 36 h", "value": 60, "unit": "%"}, {"measurement": "TAK1–TRAF6 interaction", "setting": "TAK1–TRAF6 interaction", "value": "does not disrupt"}]}
